Results as given in patent publication US20220378923A1, “BET DEGRADER” (KYOWA KIRIN CO., LTD., priority 2019, published 2022).
Read-outs that look alike come from different tables or passages of the source.

What was measured:
[1] = tested on: MYC mRNA expression in SU-DHL-4 cells; experiment: Suppressive effect on MYC mRNA expression (Test Example 2); type: cell-based, human; settings: test compound 100 nmol/L, 6 hours, qRT-PCR corrected by ACTB, GAPDH; for inhibition at 0.1 µM: Homo sapiens, HPRT1, read-out: Suppression Rate of MYC mRNA Expression (%); for Suppression Rate of MYC mRNA Expression (%): HPRT1
How it was run: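 SU-DHL-4 cells were treated for 6 h at 37 °C with compound (0.1% DMSO final). MYC mRNA was measured by TaqMan qRT-PCR and normalised to the geometric mean of ACTB, GAPDH and HPRT1. Suppression was calculated relative to untreated wells.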

[2] = tested on: SU-DHL-4 cells; experiment: Inhibitory effect on cell viability in SU-DHL-4 cell line (Test Example 1); type: cell-based, human; settings: 72 hours; for IC50: SU-DHL-4 (wild type) cells, calculated using the measurement results of test example 1, read-out: SU-DHL-4 WT IC50; for IC90: SU-DHL-4 cells, Cell Counting Kit-8, concentration showing 90% inhibition of cell viability, read-out: SU-DHL-4 Cell Viability Inhibition Rate IC90
How it was run: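 SU-DHL-4 cells were grown at 37° C. under 5% CO2 in RPMI1640 with 10 vol % heat-inactivated FBS plus penicillin/streptomycin, seeded and precultured for 18 to 25 hours, then exposed to test compound at 0.1 vol % DMSO for 72 hours. Viability was read with Cell Counting Kit-8 by absorbance at 450 nm.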

Row | SMILES | inhibition at 0.1 µM [1] [%] | IC50 ([2]; Homo sapiens) [nM] | Suppression Rate of MYC mRNA Expression (%) [1] [%] | IC50 [2] [nM] | IC90 [2] [nM] | IC90 ([2]; Homo sapiens) [nM]
1 | CCC(=O)N1c2ccccc2[C@H](Nc2ccc(NC(=O)CCNC(=O)c3ccc(N[C@@H]4C[C@H](C)N(C(=O)CC)c5ccccc54)cc3)cc2)C[C@@H]1C (relative stereo) [Compound 2f, 4-{[(2S,4R)-2-Methyl-1-propionyl-1,2,3,4-tetrahydroquinolin-4-yl]amino}-N-{3-[(4-{[(2S*,4R*)-2-methyl-1-propionyl-1,2,3,4-tetrahydroquinolin-4-yl]amino}phenyl)amino]-3-oxopropyl}benzamide] | 98.6 | 0.09 | – | – | – | –
2 | CCC(=O)N1c2ccccc2[C@H](Nc2ccc(NC(=O)N3CCN(C(=O)C4CCC(N[C@@H]5C[C@H](C)N(C(=O)CC)c6ccccc65)CC4)CC3)cc2)C[C@@H]1C (stereo partly drawn) [Compound 7p, 4-((1R,4r)-4-(((2S,4R)-2-Methyl-1-propionyl-1,2,3,4-tetrahydroquinolin-4-yl)amino)cyclohexane-1-carbonyl)-N-(4-(((2S,4R)-2-methyl-1-propionyl-1,2,3,4-tetrahydroquinolin-4-yl)amino)phenyl)piperazine-1-carboxamide] | – | – | 97.9 | 0.38 | 0.79 | –
3 | CCC(=O)N1c2ccccc2[C@H](Nc2ccc(C(=O)NCCCNC(=O)c3ccc(C4=N[C@@H](CC(=O)OC5CCC(O)CC5)c5nnc(C)n5-c5sc(C)c(C)c54)cc3)cc2)C[C@@H]1C (stereo partly drawn) [Compound 13d, 4-Hydroxycyclohexyl 2-((S)-2,3,9-trimethyl-4-(4-((3-(4-(((2S,4R)-2-methyl-1-propionyl-1,2,3,4-tetrahydroquinolin-4-yl)amino)benzamide)propyl)carbamoyl)phenyl)-6H-thieno[3,2-f][1,2,4]triazolo[4,3-a][1,4]diazepin-6-yl)acetate] | – | – | 97.2 | 0.53 | 1.19 | –
4 | CCC(=O)N1c2ccccc2[C@H](Nc2ccc(NC(=O)CCCC(=O)NC3CCN(Cc4cc(O)cc(-c5c(C)noc5C)c4)CC3)cc2)C[C@@H]1C [Compound 12c, N^1-(1-(3-(3,5-Dimethylisoxazol-4-yl)-5-hydroxybenzyl)piperidin-4-yl)-N^5-(4-(((2S,4R)-2-methyl-1-propionyl-1,2,3,4-tetrahydroquinolin-4-yl)amino)phenyl)glutaramide] | 97.8 | 0.22 | – | – | – | 0.56
5 | CCC(=O)N1c2ccccc2[C@H](Nc2ccc(NC(=O)CCCC(=O)Nc3cccc(Oc4ccccc4-c4cn(C)c(=O)cc4OC)c3)cc2)C[C@@H]1C [Compound 16m, N^1-(3-(2-(4-Methoxy-1-methyl-6-oxo-1,6-dihydropyridin-3-yl)phenoxy)phenyl)-N5-(4-(((2S,4R)-2-methyl-1-propionyl-1,2,3,4-tetrahydroquinolin-4-yl)amino)phenyl)glutaramide] | 97.1 | 0.62 | – | – | – | 1.85
6 | CCC(=O)N1c2ccccc2[C@H](Nc2ccc(NC(=O)CCCC(=O)Nc3ccc(Cn4c(C(=O)OCCN(C)C)cc5c4CCCC5=O)cc3)cc2)C[C@@H]1C [Compound 15a, 2-(Dimethylamino)ethyl 1-(4-(5-((4-(((2S,4R)-2-methyl-1-propionyl-1,2,3,4-tetrahydroquinolin-4-yl)amino)phenyl)amino)-5-oxopentanamide)benzyl)-4-oxo-4,5,6,7-tetrahydro-1H-indole-2-carboxylate] | – | – | 97.6 | 0.28 | 0.34 | –
7 | CCC(=O)N1c2ccccc2[C@H](Nc2ccc(NC(=O)CNC(=O)N[C@H]3CC[C@H](N[C@@H]4C[C@H](C)N(C(=O)CC)c5ccccc54)CC3)cc2)C[C@@H]1C [Compound 8j, 2-(3-((1R,4R)-4-(((2S,4R)-2-Methyl-1-propionyl-1,2,3,4-tetrahydroquinolin-4-yl)amino)cyclohexyl)ureido)-N-(4-(((2S,4R)-2-methyl-1-propionyl-1,2,3,4-tetrahydroquinolin-4-yl)amino)phenyl)acetamide] | – | – | 97.2 | 0.29 | 0.5 | –
8 | CCC(=O)N1c2ccccc2[C@H](Nc2ccc(C(=O)N3CC4CC3CN4C(=O)c3ccc(N[C@@H]4C[C@H](C)N(C(=O)CC)c5ccccc54)cc3)cc2)C[C@@H]1C [Compound 1k, 1,1′-{(2S,2'S,4R,4′R)-{[(2,5-Diazabicyclo[2.2.1]heptane-2,5-dicarbonyl)bis(4,1-phenylene)]bis(azanediyl)}bis[2-methyl-3,4-dihydroquinoline-4,1(2H)-diyl]}bis(propan-1-one)] | 98.6 | 0.22 | – | – | – | –
9 | CCC(=O)N1c2ccccc2[C@H](Nc2ccc(C(=O)N3CCn4c(-c5ccc(N[C@@H]6C[C@H](C)N(C(=O)CC)c7ccccc76)cc5)cnc4C3)cc2)C[C@@H]1C [Compound 3e, 1-[(2S,4R)-2-Methyl-4-({4-[3-(4-{[(2S,4R)-2-methyl-1-propionyl-1,2,3,4-tetrahydroquinolin-4-yl]amino}phenyl)-5,6,7,8-tetrahydroimidazo[1,2-a]pyrazine-7-carbonyl]phenyl}amino)-3,4-dihydroquinolin-1(2H)-yl]propan-1-one] | 98.3 | 0.1 | – | – | – | –
10 | CCC(=O)N1c2ccccc2[C@H](Nc2ccc(-c3cnn(CCNC(=O)c4ccc(Cn5c(C(=O)OCCN(C)C)cc6c5CCCC6=O)cc4)c3)cc2)C[C@@H]1C [Compound 15d, 2-(Dimethylamino)ethyl 1-(4-((2-(4-(4-(((2S,4R)-2-methyl-1-propionyl-1,2,3,4-tetrahydroquinolin-4-yl)amino)phenyl)-1H-pyrazol-1-yl)ethyl)carbamoyl)benzyl)-4-oxo-4,5,6,7-tetrahydro-1H-indole-2-carboxylate] | 96.9 | 0.11 | – | – | – | –
11 | CCC(=O)N1c2ccccc2C(Nc2ccc(NC(=O)C#CCNC(=O)c3ccc(N[C@@H]4C[C@H](C)N(C(=O)CC)c5ccccc54)cc3)cc2)CC1C (stereo partly drawn) [Compound 6h, 4-(((2S,4R)-2-Methyl-1-propionyl-1,2,3,4-tetrahydroquinolin-4-yl)amino)-N-(4-((4-((2-methyl-1-propionyl-1,2,3,4-tetrahydroquinolin-4-yl)amino)phenyl)amino)-4-oxobut-2-yn-1-yl)benzamide] | 97.2 | 0.003 | – | – | – | –
12 | CCNC(=O)C[C@@H]1N=C(c2ccc(SCCCCSc3ccc(C4=N[C@@H](CC(=O)NCC)c5nnc(C)n5-c5ccc(OC)cc54)cc3)cc2)c2cc(OC)ccc2-n2c(C)nnc21 [compound 1, 2,2′-((4S,4'S)-6,6′-((butane-1,4-diylbis(sulfanediyl))bis(4,1-phenylene))bis(8-methoxy-1-methyl-4H-benzo[f][1,2,4]triazolo[4,3-a][1,4]diazepine-6,4-diyl))bis(N-ethylacetamide), reference compound] | – | – | 61.7 | 221 | 2560 | –
13 | CCC(=O)N1c2ccccc2[C@H](Nc2ccc(NC(=O)CNCC(=O)Nc3ccc(N[C@@H]4C[C@H](C)N(C(=O)CC)c5ccccc54)cc3)cc2)C[C@@H]1C [Compound 5d, 2,2′-Azanediylbis(N-(4-(((2S,4R)-2-methyl-1-propionyl-1,2,3,4-tetrahydroquinolin-4-yl)amino)phenyl)acetamide)] | 97.5 | 0.31 | – | – | – | –
